Assay results as given in the supplement of paper PMC5303821, “Major sulfonate transporter Soa1 in Saccharomyces cerevisiae and considerable substrate diversity in its fungal family” (Nature Communications, 2017).
Where a name gives a salt, the structure may show the parent alone.

Tests used:
Settings in all cases: sulfur source concentration 200 µM; S. cerevisiae S288C/BY sul1Δ sul2Δ soa1Δ with transporter ortholog inserted at SOA1 locus; sulfur-free B medium, 4% glucose, pH 6.5, sole sulfur source
[1] = test system: Metarhizium robertsii_XP_007821441; experiment: maximal culture density with compound as sole sulfur source (OD600); higher = better growth
Description: (§1)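 S. cerevisiae sul1Δ sul2Δ soa1Δ strains expressing 20 fungal SOA1 orthologs (or no transporter, 'soa1 del') were grown in liquid sulfur-free B medium, 4% glucose, pH 6.5 (7 mM K2HPO4). The strains were sulfur-starved for 3 days beforehand. Each sulfur compound was the sole sulfur source at 200 µM (sulfate also at 40 mM). OD600 curves of duplicate cultures were averaged and fitted (logistic / Richards, GroFit) to give maximal growth rate, maximal density and lag phase; temperature not stated.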

[2] = test system: Ogataea parapolymorpha_XP_013935289; experiment: as above
Description: as §1

[3] = test system: Aspergillus nidulans (IAM 2006)_astA; experiment: as above
Description: as §1

[4] = test system: Metarhizium robertsii_XP_007822519; experiment: as above
Description: as §1

[5] = test system: Aspergillus nidulans_XP_660670; experiment: as above
Description: as §1

[6] = test system: Saccharomyces uvarum_SOA2; experiment: as above
Description: as §1

[7] = test system: Saccharomyces uvarum_SOA1; experiment: as above
Description: as §1

[8] = test system: Ogataea parapolymorpha_XP_013932458; experiment: as above
Description: as §1

[9] = test system: Metarhizium robertsii_XP_007823832; experiment: as above
Description: as §1

[10] = test system: Saccharomyces eubayanus_SOA2; experiment: as above
Description: as §1

[11] = test system: Aspergillus nidulans_XP_661733; experiment: as above
Description: as §1

[12] = test system: Ogataea parapolymorpha_XP_013936897; experiment: as above
Description: as §1

[13] = test system: Aspergillus nidulans_XP_661711; experiment: as above
Description: as §1

[14] = test system: Aspergillus nidulans_XP_660563; experiment: as above
Description: as §1

[15] = test system: Fusarium oxysporum_ENH65823; experiment: as above
Description: as §1

[16] = test system: Saccharomyces eubayanus_SOA1; experiment: as above
Description: as §1

[17] = test system: Aspergillus nidulans_CBF74694; experiment: as above
Description: as §1

[18] = test system: soa1 del; experiment: as above
Description: as §1

[19] = test system: Aspergillus nidulans_CBF80346; experiment: as above
Description: as §1

[20] = test system: Saccharomyces cerevisiae_SOA1; experiment: as above
Description: as §1

[21] = test system: Aspergillus nidulans_XP_681611; experiment: as above
Description: as §1

[22] = test system: Ogataea parapolymorpha_XP_013935289; experiment: lag phase before growth; higher = slower start of growth
Description: as §1

[23] = test system: Aspergillus nidulans (IAM 2006)_astA; experiment: as above
Description: as §1

[24] = test system: Metarhizium robertsii_XP_007823832; experiment: as above
Description: as §1

[25] = test system: Saccharomyces cerevisiae_SOA1; experiment: as above
Description: as §1

[26] = test system: Metarhizium robertsii_XP_007821441; experiment: maximal growth rate with compound as sole sulfur source (OD600 per h); higher = better growth / uptake of the sulfur source
Description: as §1

[27] = test system: Ogataea parapolymorpha_XP_013935289; experiment: as above
Description: as §1

[28] = test system: Aspergillus nidulans (IAM 2006)_astA; experiment: as above
Description: as §1

[29] = test system: Metarhizium robertsii_XP_007822519; experiment: as above
Description: as §1

[30] = test system: Aspergillus nidulans_XP_660670; experiment: as above
Description: as §1

[31] = test system: Saccharomyces uvarum_SOA2; experiment: as above
Description: as §1

[32] = test system: Saccharomyces uvarum_SOA1; experiment: as above
Description: as §1

[33] = test system: Ogataea parapolymorpha_XP_013932458; experiment: as above
Description: as §1

[34] = test system: Metarhizium robertsii_XP_007823832; experiment: as above
Description: as §1

[35] = test system: Saccharomyces eubayanus_SOA2; experiment: as above
Description: as §1

[36] = test system: Aspergillus nidulans_XP_661733; experiment: as above
Description: as §1

[37] = test system: Ogataea parapolymorpha_XP_013936897; experiment: as above
Description: as §1

[38] = test system: Aspergillus nidulans_XP_661711; experiment: as above
Description: as §1

[39] = test system: Aspergillus nidulans_XP_660563; experiment: as above
Description: as §1

[40] = test system: Fusarium oxysporum_ENH65823; experiment: as above
Description: as §1

[41] = test system: Saccharomyces eubayanus_SOA1; experiment: as above
Description: as §1

[42] = test system: Aspergillus nidulans_CBF74694; experiment: as above
Description: as §1

[43] = test system: soa1 del; experiment: as above
Description: as §1

[44] = test system: Aspergillus nidulans_CBF80346; experiment: as above
Description: as §1

[45] = test system: Saccharomyces cerevisiae_SOA1; experiment: as above
Description: as §1

[46] = test system: Aspergillus nidulans_XP_681611; experiment: as above
Description: as §1

C[N+](C)(C)CCOS(=O)(=O)[O-] [Choline sulfate] was tested, and the maximal culture density [1] was 0.25, the maximal culture density [2] was 1.6 and the maximal culture density [3] was 1.61. The maximal culture density [4] was 0.238, the maximal culture density [5] was 0.282 and the maximal culture density [6] was 0.237. The maximal culture density [7] was 0.69, the maximal culture density [8] was 0.288 and the maximal culture density [9] was 1.61. The maximal culture density [10] was 0.202, the maximal culture density [11] was 0.257 and the maximal culture density [12] was 0.335. It also gave a maximal culture density [13] of 0.282, a maximal culture density [14] of 0.381 and a maximal culture density [15] of 0.284. For the same molecule, the maximal culture density [16] was 0.49, the maximal culture density [17] was 0.215 and the maximal culture density [18] was 0.22. It also gave a maximal culture density [19] of 0.245, a maximal culture density [20] of 1.59 and a maximal culture density [21] of 0.352. The “lag phase before growth” value [22] was 19.4 h, the “lag phase before growth” value [23] was 6.39 h and the “lag phase before growth” value [24] was 8.32 h. For the same molecule, the “lag phase before growth” value [25] was 28.7 h, the maximal growth rate [26] was 0.00312 and the maximal growth rate [27] was 0.072. It also gave a maximal growth rate [28] of 0.0987, a maximal growth rate [29] of 0.00309 and a maximal growth rate [30] of 0.00346. It also gave a maximal growth rate [31] of 0.00318, a maximal growth rate [32] of 0.00649 and a maximal growth rate [33] of 0.00365. It also gave a maximal growth rate [34] of 0.0809, a maximal growth rate [35] of 0.00319 and a maximal growth rate [36] of 0.00364. For the same molecule, the maximal growth rate [37] was 0.00441, the maximal growth rate [38] was 0.00345 and the maximal growth rate [39] was 0.0061. The maximal growth rate [40] was 0.00381, the maximal growth rate [41] was 0.0058 and the maximal growth rate [42] was 0.00254. For the same molecule, the maximal growth rate [43] was 0.00393, the maximal growth rate [44] was 0.00384 and the maximal growth rate [45] was 0.0576. The maximal growth rate [46] was 0.0057.
